Each structure is given as a SMILES string.

The subject of data set [1] is Hepatocellular carcinoma cells. The experiment in a line: Rat hepatocellular carcinoma study: cancer cell viability vs μM of anti-cancer agents (FIG. 3). The settings on record: 23 hour period; 3-bromopyruvate with as little as 20 μM.
The test system of data set [2] is human prostate cancer cells. The experiment in a line: Cell viability/proliferation of human prostate cancer cells vs various anti-cancer agents (FIG. 9). Format: cell-based. An excerpt: The anti-cancer compositions described herein can be used to treat any cancer having increased glycolysis; the metabolic phenotype referred to as the “Warburg Effect”, as described above. In another embodiment, the anti-cancer compositions can be used to treat any cancer that can be detected by Positron Emission Tomography (PET), which detects this metabolic phenotype. For example, FIG. 5 illustrates a reaction scheme for PET scanning. Human cancer cell lines that the present anti-cancer composition has shown to be effective against include liver, cervical, ovarian, lung, breast, colon, neuroblastoma, medulloblastoma, prostate, skin, pancreatic, childhood fibrolamellar hepatocellular carcinoma (FHCC), hepatocellular carcinoma (HCC), non small cell lung cancer. For example, FIG. 9 depicts a bar graph showing various cancer drugs effects on human prostate cancer cells. […] As such, the present cancers that can be treated with the present anti-cancer compositions can be selected from the group consisting of liver, cervical, ovarian, lung, breast, colon, neuroblastoma, medulloblastoma, prostate, skin, pancreatic, childhood fibrolamellar hepatocellular carcinoma (FHCC), hepatocellular carcinoma (HCC), non small cell lung cancer. […]

In data set [3] the test system is liver cancer cells. The experiment in a line: Photographs of liver cancer cells treated with 3BP (FIG. 2). It counts as cell-based. An excerpt: The presently disclosed cellular energy inhibitors, shown as 3-bromopyruvate (3BP) (a lactic acid analog) in FIG. 1, are small chemicals and can mimic the lactic acid chemical structure; depicted as a small diamond in FIG. 1. Therefore, cellular energy inhibitors disguised as lactic acid can “trick” the cancer cells and enter like a Trojan horse (FIG. 1). The inhibitors have little effect on normal cells as these contain very few lactic acid transporters. Because of the present cellular energy inhibitors' highly reactive nature, it can destroy the two energy production factories (FIG. 1; one diamond above the hexokinase (HK), shown as 3BP is destroying one energy production factory, i.e., glycolysis, and another red diamond inside the mitochondrion means that 3BP is destroying also this energy production factory). As a result, the cellular energy (ATP) can be depleted very rapidly by cellular energy inhibitors; 3BP in FIG. 1, attack the two factories at the same time causing the cancer cells to rapidly explode (cell membrane rupturing). […] Here, the healthy cancer cells are round and iridescent (left picture).

For data set [4], the system named is metastatic lung tumors. The data set can be described thus: Metastatic lung cancer study in rabbits, IP port delivery (FIG. 4). Conditions: dissected lungs.

With `O=C(O)C(=O)CBr` [3-Bromopyruvate, 3-bromopyruvate], the cell viability result in data set [1] was “approx. 5%”. Besides, in data set [2], the “stopping cancer cell proliferation vs other known chemo-agents” value is “better than other known chemo-agents in stopping cancer cell proliferation”. Besides, in data set [3], the “cell morphology / death after treatment” value is “the cell membranes rupture”. Besides, the “metastatic lung cancer after treatment” value in data set [4] was “no metastatic lung cancer”.

(Values after patent US11077078B2, “Compositions and methods for the treatment of cancer” (KoDiscovery, LLC, priority 2006, dated 2021).)
